Measurements taken from US6420353B1, “Use of 7 α-substituted steroid to treat neuropsychiatric, immune or endocrine disorders” (BTG International Limited, priority 1996, dated 2002).
Like-named read-outs stand apart in the source and are kept apart here.

Legend:
[1] = biological target: T1, Cyp7b (Mus musculus, UniProt Q60991)
T1 sequence (Q60991 1-507): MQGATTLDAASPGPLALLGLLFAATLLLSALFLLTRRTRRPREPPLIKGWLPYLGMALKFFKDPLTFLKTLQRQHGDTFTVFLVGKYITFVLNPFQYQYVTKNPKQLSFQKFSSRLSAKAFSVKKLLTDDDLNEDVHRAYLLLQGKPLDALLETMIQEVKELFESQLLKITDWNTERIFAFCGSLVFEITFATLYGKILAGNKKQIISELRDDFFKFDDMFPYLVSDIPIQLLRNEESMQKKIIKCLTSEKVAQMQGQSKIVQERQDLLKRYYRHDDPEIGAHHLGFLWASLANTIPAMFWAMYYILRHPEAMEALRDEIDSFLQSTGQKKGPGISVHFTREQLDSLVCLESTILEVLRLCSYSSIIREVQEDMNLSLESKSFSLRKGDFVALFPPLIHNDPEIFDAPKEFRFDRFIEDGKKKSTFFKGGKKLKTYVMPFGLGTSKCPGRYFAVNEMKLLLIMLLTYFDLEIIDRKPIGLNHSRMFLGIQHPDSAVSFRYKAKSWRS

[2] = biological target: T1, Cyp7b; assay: Catalytic activity of Cyp7b expressed in mammalian cell lines (NADPH-dependent conversion, TLC)
Source text: To examine the catalytic activity of the enzyme Cyp7b CDNAs were expressed in mammalian cell lines.

[3] = biological target: T1, Cyp7b; remark: listed apart in the source
[4] = biological target: T2, GR (Homo sapiens, UniProt P04150); assay: Cis-trans co-transfection assay (MMTV-LUC / pRShGR) in CHO cells; type: cell-based; conditions: in presence of a GR activating concentration of corticosterone, FIG. 4
T2 construct: expressed in transfected cells; host or cells: CHO cells, calcium phosphate transfection
T2 sequence (P04150 1-777): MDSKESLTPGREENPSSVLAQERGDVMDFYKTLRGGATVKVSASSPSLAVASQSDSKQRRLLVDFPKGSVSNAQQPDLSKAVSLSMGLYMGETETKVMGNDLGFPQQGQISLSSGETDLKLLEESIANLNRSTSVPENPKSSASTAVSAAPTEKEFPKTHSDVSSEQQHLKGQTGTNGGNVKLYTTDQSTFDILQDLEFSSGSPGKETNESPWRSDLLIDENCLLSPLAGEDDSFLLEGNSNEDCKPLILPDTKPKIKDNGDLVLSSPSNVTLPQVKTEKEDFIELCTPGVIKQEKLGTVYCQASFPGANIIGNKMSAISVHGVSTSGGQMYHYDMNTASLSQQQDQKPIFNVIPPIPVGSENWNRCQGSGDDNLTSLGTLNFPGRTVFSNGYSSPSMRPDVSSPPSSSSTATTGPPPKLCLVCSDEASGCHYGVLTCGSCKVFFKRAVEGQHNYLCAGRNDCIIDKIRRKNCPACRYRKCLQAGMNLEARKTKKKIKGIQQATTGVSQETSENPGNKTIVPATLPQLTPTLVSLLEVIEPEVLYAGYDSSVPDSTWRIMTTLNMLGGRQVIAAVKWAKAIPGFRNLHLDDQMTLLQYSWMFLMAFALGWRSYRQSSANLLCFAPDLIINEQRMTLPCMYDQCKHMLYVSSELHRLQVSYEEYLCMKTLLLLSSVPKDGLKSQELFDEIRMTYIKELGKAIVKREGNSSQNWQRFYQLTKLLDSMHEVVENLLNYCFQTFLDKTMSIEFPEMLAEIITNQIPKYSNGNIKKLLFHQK
Experimental: Chinese hamster ovary (CHO) cells were maintained and transfected in Dulbecco's modification of Eagle's medium (DMEM) supplemented with 15% foetal bovine serum, 100 IU/ml penicillin, 100 μg/ml streptomycin and […] L-glutamine (all Gibco BRL, Paisley, UK).
24 hours prior to transfection CHO cells were plated at a density of 3×10^5/60 mm dish (Costar UK). Cells were transfected by the clacium phosphate method. Briefly, 5 μg of MMTV-LUC and 1 μg of pRShGR or 5 μg of pSV2 as a control for transfection efficiency were made up to a total of 10 μg/plate of DNA with pGEM3. 30 μl of 2.5M CaCl2 was diluted ten-fold with sterile water and 300 μl was added to the DNA. […]
The following day the cells were washed in PBS, lysed with 0.3 ml of lysis buffer (25 mM Tris-phosphate pH 7.8, 2 mM DTT, 1% Triton X-100 and 10% glycerol), scraped, centrifuged and the supernatant assayed in duplicate in a Berthold luminometer in a total volume of 250 μl, comprising 40 μl of cell extract, 5 μl of 30 mM ATP, 100 μl of assay buffer (20 mM tricine, […] (MgCO3)4.Mg(OH)2.%H2O, 2.67 mM MgSO4, Q1 mM EDTA, 33.3 mM DTT, 0.2 mg/ml coenzyme A) and 105 μl luciferin (Promega UK) injected to initiate the reaction. Light emission was measured over 10 seconds and relative light units/microgram of protein was calculated.

[5] = substrate: C[C@]12CC[C@H](O)CC1=CC[C@@H]1[C@@H]2CC[C@]2(C)C(=O)CC[C@@H]12; assay: purified protein, by the assay type; conditions: other: cell extracts, NADPH-dependent conversion
[6] = cell extracts, NADPH-dependent conversion
[7] = relative to DHEA and pregnenolone

## C[C@]12CC[C@@H]3c4ccc(O)cc4CC[C@H]3[C@@H]1CC[C@@H]2O [estradiol, 17β-estradiol]
[1]
  conversion of labelled steroid by Cyp7b microsomes to a lower mobility form on TLC: converted by the enzymes
[2]
  activity of the expressed enzyme against the steroid as substrate: less active

## CC(=O)[C@H]1CC[C@H]2[C@@H]3CC=C4C[C@@H](O)CC[C@]4(C)[C@H]3CC[C@]12C [pregnenolone]
[3]
  release of 3H into the aqueous phase: efficiently released
[1]
  conversion of labelled steroid by Cyp7b microsomes to a lower mobility form on TLC: converted by the enzymes
[2]; [6]
  Km: 3.6 µM
  Vmax: 34 pmol/min/mg

## C[C@]12CC[C@H](O)C[C@@H]1CC[C@@H]1[C@@H]2CC[C@]2(C)[C@@H](O)CC[C@@H]12 [5α-androstane-3β, 17β-diol]
[2]; [7]
  activity of the expressed enzyme against the steroid as substrate: less active

## C[C@]12CC[C@H](O)CC1=CC[C@@H]1[C@@H]2CC[C@]2(C)C(=O)CC[C@@H]12 [DHEA, dehydroepiandrosterone]
[4]
  antagonism of corticosterone effect in activating GR-mediated transcription (fold induction of luciferase): not
[1]
  conversion of labelled steroid by Cyp7b microsomes to a lower mobility form on TLC: converted

## C[C@H](CCCC(C)(C)O)[C@H]1CC[C@H]2[C@@H]3CC=C4C[C@@H](O)CC[C@]4(C)[C@H]3CC[C@]12C [25-hydroxycholesterol]
[1]
  conversion of labelled steroid by Cyp7b microsomes to a lower mobility form on TLC: converted by the enzymes
[2]
  activity of the expressed enzyme against the steroid as substrate: less active

## CC(=O)[C@H]1CC[C@H]2[C@@H]3CCC4=CC(=O)CC[C@]4(C)[C@H]3CC[C@]12C [progesterone]
[1]
  conversion of labelled steroid by Cyp7b microsomes to a lower mobility form on TLC: at best inefficiently metabolised, if at all

## C[C@]12CC[C@H](O)CC1=C[C@@H](O)[C@@H]1[C@@H]2CC[C@]2(C)C(=O)CC[C@@H]12 [7HD, 7α-hydroxydehydroepi-androsterone]
[4]
  antagonism of corticosterone effect in activating GR-mediated transcription (fold induction of luciferase): acts as an antagonist

## C[C@]12CCC(=O)C=C1CC[C@@H]1[C@@H]2[C@@H](O)C[C@@]2(C)[C@H]1CC[C@]2(O)C(=O)CO [cortisol]
[1]
  conversion of labelled steroid by Cyp7b microsomes to a lower mobility form on TLC: at best inefficiently metabolised, if at all

## C[C@]12C[C@H](O)[C@H]3[C@@H](CCC4=CC(=O)CC[C@@]43C)[C@@H]1CC[C@@H]2C(=O)CO [corticosterone]
[1]
  conversion of labelled steroid by Cyp7b microsomes to a lower mobility form on TLC: at best inefficiently metabolised, if at all
[2]
  activity of the expressed enzyme against the steroid as substrate: low to undetectable activity

## C[C@]12CC[C@H]3[C@@H](CCC4=CC(=O)CC[C@@]43C)[C@@H]1CC[C@@H]2O [testosterone]
[1]
  conversion of labelled steroid by Cyp7b microsomes to a lower mobility form on TLC: at best inefficiently metabolised, if at all
[2]; [7]
  activity of the expressed enzyme against the steroid as substrate: low to undetectable activity

B1: Cyp7b (Mus musculus) (protein)
chain: MQGATTLDAASPGPLALLGLLFAATLLLSALFLLTRRTRRPREPPLIKGWLPYLGMALKFFKDPLTFLKTLQRQHGDTFTVFLVGKYITFVLNPFQYQYVTKNPKQLSFQKFSSRLSAKAFSVKKLLTDDDLNEDVHRAYLLLQGKPLDALLETMIQEVKELFESQLLKITDWNTERIFAFCGSLVFEITFATLYGKILAGNKKQIISELRDDFFKFDDMFPYLVSDIPIQLLRNEESMQKKIIKCLTSEKVAQMQGQSKIVQERQDLLKRYYRHDDPEIGAHHLGFLWASLANTIPAMFWAMYYILRHPEAMEALRDEIDSFLQSTGQKKGPGISVHFTREQLDSLVCLESTILEVLRLCSYSSIIREVQEDMNLSLESKSFSLRKGDFVALFPPLIHNDPEIFDAPKEFRFDRFIEDGKKKSTFFKGGKKLKTYVMPFGLGTSKCPGRYFAVNEMKLLLIMLLTYFDLEIIDRKPIGLNHSRMFLGIQHPDSAVSFRYKAKSWRS
[5]
  Km: 13.3 µM
  Vmax: 288 pmol/min/mg
